Data from publication PMC6720511, “Synthesis and biological evaluation of novel N-(piperazin-1-yl)alkyl-1H-dibenzo[a,c]carbazole derivatives of dehydroabietic acid as potential MEK inhibitors” (Journal of Enzyme Inhibition and Medicinal Chemistry, 2019).
Peptide text beside a SMILES is read from it. * marks the point of attachment. Cbz = O=C(OCc1ccccc1)*; CH2F = FC*

How the values were obtained:
Hep3B = test: MTT cytotoxic assay; assay type: cell-based, human; conditions: Homo sapiens, Hep3B, 48 h, mean value ± SD
Method: (§1) Three human hepatocarcinoma cell lines (SMMC-7721, HepG2 and Hep3B) and normal hepatocyte cell line (QSG-7701) were maintained in Dulbecco Modified Eagle Medium (DMEM) containing 4.0 mM L-Glutamine and 4500 mg/l Glucose supplemented with 10% (v/v) foetalbovine serum (FBS) and 100 unites/mL penicillin/streptomycin at 37 °C in humidified atmosphere of 5% CO2 and 95% air.
(§2) The in vitro cytotoxic activities of the carbazole derivatives of DHA were evaluated against three human hepatocarcinoma cell lines (SMMC-7721, HepG2 and Hep3B) and a normal human hepatocyte cell line (QSG-7701) via the MTT colorimetric method. Briefly, SMMC-7721, HepG2, Hep3B and QSG-7701 cells were harvested at log phase of growth and seeded in 96-well plates (100 µL/well at a density of 2 × 10^5 cells/mL). After 24 h incubation at 37 °C and 5% CO2 to allow cell attachment, cultures were exposed to various concentrations of the isolated compounds for 48 h. Finally, MTT solution (2.5 mg/mL in PBS) was added (40 µL/well). Plates were further incubated for 4 h at 37 °C, and the formazan crystals formed were dissolved by adding 150 µL/well of DMSO. Absorption at 570 nm was measured with an ELISA plate reader. […] Doxorubicin was co-assayed as positive control.

HepG2 = test: MTT cytotoxic assay; assay type: cell-based, human; conditions: Homo sapiens, HepG2, 48 h, mean value ± SD
Method: as §1, §2

SMMC-7721 = test: MTT cytotoxic assay; assay type: cell-based, human; conditions: Homo sapiens, SMMC-7721, 48 h, mean value ± SD
Method: as §1, §2

[1] = system: normal hepatocyte cell line (QSG-7701); test: MTT cytotoxic assay on normal hepatocytes; assay type: cell-based, human; conditions: Homo sapiens, QSG7701, 48 h, mean value ± SD
Method: as §1, §2

MEK1 [2] = target: T1, MEK1 (Homo sapiens, UniProt Q02750); test: In vitro MEK1 inhibition assay (ADP-Glo kinase assay); assay type: biochemical; conditions: for IC50: recombinant GST-MEK1, GST-ERK2, 10 µM ATP, mean value ± SD, read-out: MEK1 inhibitory activity IC50 value
T1 construct: purchased Carna Biosciences, Japan
Method: An in vitro kinase assay of MEK1 was performed using ADP-Glo kinase assay (Promega, Madison, WI, USA) according to the manufacturer’s protocol. […] Reactions were stopped by adding 5 µL of ADP-Glo reagent to each well. After incubating at 22 °C for 40 min, 10 µL of the kinase detection reagent was added and the plates were incubated for another 30 min at 22 °C in the dark. The reaction mixture was analysed by EnSpire (PerkinElmer, Waltham, MA, USA). U0126 was used as the positive control for MEK1 inhibition.

[3] = system: three human hepatocarcinoma cell lines (SMMC-7721, HepG2 and Hep3B); test: MTT cytotoxic assay, statements over the three cancer cell lines; assay type: cell-based; conditions: for IC50: Homo sapiens, at least one of SMMC-7721, HepG2, Hep3B, read-out: IC50 against at least one hepatocarcinoma cell line
Method: as §1, §2

MEK1 [4] = target: T1, MEK1; test: Preliminary screening of in vitro MEK1 inhibitory activity; assay type: biochemical
HepG2 cells = test: Cell death inhibition assay; assay type: cell-based, human; conditions: 24 h
Method: Figure 6. Compound 10g induced oncosis and apoptosis of HepG2 cells. (a) PD150606 and Z-VAD-FMK partially reversed compound 10g-induced cell death. HepG2 cells were incubated with PD150606, Z-VAD-FMK or Necrostatin-1 at indicated concentration for 24 h alone or in combination with compound 10g at indicated concentration for 24 h. (b) Compound 10g induced the degradation of α-tubulin and β-actin, and activated oncosis marker calpain-1 autolysis from the 80 kDa event to 76 kDa event in western blot analysis. *, p < 0.01; **, p < 0.01; #, p < 0.01; &, p < 0.001. (c) Compound 10g induced the upregulation of apoptotic protein Bax, caspase-3, caspase-9 and plasmic cytochrome c levels, and the downregulation of antiapoptotic protein Bcl-2 level. *, p < 0.001; **, p < 0.01; #, p < 0.01; and p < 0.01.

MEK1/2 = system: MEK1/2; design: method as in PMID 21245089; conditions: cited from earlier work

T1 sequence (Q02750 whole entry): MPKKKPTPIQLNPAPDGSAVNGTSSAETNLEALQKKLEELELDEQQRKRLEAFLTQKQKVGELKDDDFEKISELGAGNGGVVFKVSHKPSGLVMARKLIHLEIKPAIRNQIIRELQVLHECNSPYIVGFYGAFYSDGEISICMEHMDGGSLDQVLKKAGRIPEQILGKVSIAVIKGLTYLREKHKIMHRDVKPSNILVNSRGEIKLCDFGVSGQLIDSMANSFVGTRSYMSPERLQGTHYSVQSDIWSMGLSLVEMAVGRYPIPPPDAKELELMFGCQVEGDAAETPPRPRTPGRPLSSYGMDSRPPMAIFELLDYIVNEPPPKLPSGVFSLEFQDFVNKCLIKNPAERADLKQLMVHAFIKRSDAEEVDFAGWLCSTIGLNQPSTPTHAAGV

COC(=O)C1(C)CCCC2(C)c3ccc(C(C)C)cc3-c3c(c4ccccc4n3CCN3CCNCC3)C12 (stereo not shown) [Compound 6a, 2,3,4,4a,9,13c-Hexahydro-7-isopropyl-1,4a-dimethyl-9–(2-(piperazin-1-yl)ethyl) -1H-dibenzo[a,c]carbazole-1-carboxylic acid methyl ester]
IC50 (Hep3B): 0.82 ± 0.08 µM | IC50 (HepG2): 2.28 ± 0.19 µM | IC50 (SMMC-7721): 5.2 ± 0.21 µM | IC50 [1]: 8.75 ± 0.65 µM | MEK1 inhibitory activity (in words) (MEK1 [2]): weak MEK1 inhibitory activity | IC50 (MEK1 [2]): 13.2 ± 0.73 µM | IC50 [3]: < 10 µM | MEK1 inhibitory activity in preliminary screening (in words) (MEK1 [4]): moderate inhibitory activity

COC(=O)C1(C)CCCC2(C)c3ccc(C(C)C)cc3-c3c(c4ccccc4n3CCN3CCN(C=O)CC3)C12 (stereo not shown) [Compound 6e, 2,3,4,4a,9,13c-Hexahydro-7-isopropyl-1,4a-dimethyl-9–(2-(4-formylpiperazin-1-yl)ethyl)-1H-dibenzo[a,c]carbazole-1-carboxylic acid methyl ester]
IC50 (Hep3B): 11.4 ± 0.53 µM | IC50 (HepG2): 15.7 ± 1.61 µM | IC50 (SMMC-7721): 17.3 ± 1.78 µM | IC50 [1]: > 50 µM | cytotoxic activity against three cancer cell lines (in words) ([3]; SMMC-7721, HepG2 and Hep3B): moderate inhibitions

COC(=O)C1(C)CCCC2(C)c3ccc(C(C)C)cc3-c3c(c4ccccc4n3CCCN3CCN(C)CC3)C12 (stereo not shown) [Compound 7b, 2,3,4,4a,9,13c-Hexahydro-7-isopropyl-1,4a-dimethyl-9–(3-(4-methylpiperazin-1-yl)propyl)-1H-dibenzo[a,c]carbazole-1-carboxylic acid methyl ester]
IC50 (Hep3B): 5.98 ± 0.39 µM | IC50 (HepG2): 29 ± 1.29 µM | IC50 (SMMC-7721): 6.8 ± 0.72 µM | IC50 [1]: > 50 µM | IC50 [3]: < 10 µM

COC(=O)C1(C)CCCC2(C)c3ccc(C(C)C)cc3-c3c(c4cc(C)ccc4n3CCN3CCNCC3)C12 (stereo not shown) [Compound 10a, 2,3,4,4a,9,13c-Hexahydro-7-isopropyl-1,4a,12-trimethyl-9–(2-(piperazin-1-yl)ethyl)-1H-dibenzo[a,c]carbazole-1-carboxylic acid methyl ester]
IC50 (Hep3B): 1.17 ± 0.12 µM | IC50 (HepG2): 3.05 ± 0.37 µM | IC50 (SMMC-7721): 1.73 ± 0.22 µM | IC50 [1]: 16.3 ± 1.56 µM | IC50 (MEK1 [2]): 6.36 ± 0.51 µM

COC(=O)C1(C)CCCC2(C)c3ccc(C(C)C)cc3-c3c(c4cccc(C)c4n3CCN3CCNCC3)C12 (stereo not shown) [Compound 10b, 2,3,4,4a,9,13c-Hexahydro-7-isopropyl-1,4a,10-trimethyl-9–(2-(piperazin-1-yl)ethyl)-1H-dibenzo[a,c]carbazole-1-carboxylic acid methyl ester]
IC50 (Hep3B): 5.03 ± 0.31 µM | IC50 (HepG2): 6.11 ± 0.38 µM | IC50 (SMMC-7721): 5.52 ± 0.47 µM | IC50 [1]: 21.9 ± 1.72 µM | IC50 (MEK1 [2]): > 20 µM

CCc1ccc2c(c1)c1c(n2CCN2CCNCC2)-c2cc(C(C)C)ccc2C2(C)CCCC(C)(C(=O)OC)C12 (stereo not shown) [Compound 10c, 2,3,4,4a,9,13c-Hexahydro-12-ethyl-7-isopropyl-1,4a-dimethyl-9–(2-(piperazin-1-yl)ethyl)-1H-dibenzo[a,c]carbazole-1-carboxylic acid methyl ester]
IC50 (Hep3B): 5.84 ± 0.36 µM | IC50 (HepG2): 7.27 ± 0.51 µM | IC50 (SMMC-7721): 6.56 ± 0.19 µM | IC50 [1]: 22.2 ± 1.81 µM | IC50 (MEK1 [2]): > 20 µM

COC(=O)C1(C)CCCC2(C)c3ccc(C(C)C)cc3-c3c(c4cc(C(C)C)ccc4n3CCN3CCNCC3)C12 (stereo not shown) [Compound 10d, 2,3,4,4a,9,13c-Hexahydro-7,12-diisopropyl-1,4a-dimethyl-9–(2-(piperazin-1-yl)ethyl)-1H-dibenzo[a,c]carbazole-1-carboxylic acid methyl ester]
IC50 (Hep3B): 8.85 ± 0.42 µM | IC50 (HepG2): 8.42 ± 0.39 µM | IC50 (SMMC-7721): 10.5 ± 0.48 µM | IC50 [1]: 31 ± 2.39 µM | IC50 (MEK1 [2]): > 20 µM

COC(=O)C1(C)CCCC2(C)c3ccc(C(C)C)cc3-c3c(c4cc(OC)ccc4n3CCN3CCNCC3)C12 (stereo not shown) [Compound 10e, 2,3,4,4a,9,13c-Hexahydro-7-isopropyl-12-methoxy-1,4a-dimethyl-9–(2-(piperazin-1-yl)ethyl)-1H-dibenzo[a,c]carbazole-1-carboxylic acid methyl ester]
IC50 (Hep3B): 4.38 ± 0.35 µM | IC50 (HepG2): 3.73 ± 0.19 µM | IC50 (SMMC-7721): 3.02 ± 0.21 µM | IC50 [1]: 15.3 ± 1.13 µM | IC50 (MEK1 [2]): 1.28 ± 0.06 µM

COC(=O)C1(C)CCCC2(C)c3ccc(C(C)C)cc3-c3c(c4cccc(OC)c4n3CCN3CCNCC3)C12 (stereo not shown) [Compound 10f, 2,3,4,4a,9,13c-Hexahydro-7-isopropyl-10-methoxy-1,4a-dimethyl-9–(2-(piperazin-1-yl)ethyl)-1H-dibenzo[a,c]carbazole-1-carboxylic acid methyl ester]
IC50 (Hep3B): 2.23 ± 0.16 µM | IC50 (HepG2): 3.15 ± 0.13 µM | IC50 (SMMC-7721): 2.03 ± 0.15 µM | IC50 [1]: 17.3 ± 0.78 µM | IC50 (MEK1 [2]): 0.23 ± 0.03 µM

CCOc1cccc2c3c(n(CCN4CCNCC4)c12)-c1cc(C(C)C)ccc1C1(C)CCCC(C)(C(=O)OC)C31 (stereo not shown) [Compound 10h, 2,3,4,4a,9,13c-Hexahydro-10-ethoxy-7-isopropyl-1,4a-dimethyl-9–(2-(piperazin-1-yl)ethyl)-1H-dibenzo[a,c]carbazole-1-carboxylic acid methyl ester]
IC50 (Hep3B): 1.78 ± 0.12 µM | IC50 (HepG2): 4.87 ± 0.48 µM | IC50 (SMMC-7721): 2.21 ± 0.17 µM | IC50 [1]: 18.9 ± 1.09 µM | IC50 (MEK1 [2]): 1.63 ± 0.12 µM

COC(=O)C1(C)CCCC2(C)c3ccc(C(C)C)cc3-c3c(c4cc(F)ccc4n3CCN3CCNCC3)C12 (stereo not shown) [Compound 10i, 2,3,4,4a,9,13c-Hexahydro-12-fluoro-7-isopropyl-1,4a-dimethyl-9–(2-(piperazin-1-yl)ethyl)-1H-dibenzo[a,c]carbazole-1-carboxylic acid methyl ester]
IC50 (Hep3B): 3.32 ± 0.2 µM | IC50 (HepG2): 3.91 ± 0.34 µM | IC50 (SMMC-7721): 4.32 ± 0.27 µM | IC50 [1]: 23.7 ± 1.53 µM | IC50 (MEK1 [2]): > 20 µM

COC(=O)C1(C)CCCC2(C)c3ccc(C(C)C)cc3-c3c(c4cc(Cl)ccc4n3CCN3CCNCC3)C12 (stereo not shown) [Compound 10j, 2,3,4,4a,9,13c-Hexahydro-12-chloro-7-isopropyl-1,4a-dimethyl-9–(2-(piperazin-1-yl)ethyl)-1H-dibenzo[a,c]carbazole-1-carboxylic acid methyl ester]
IC50 (Hep3B): 3.75 ± 0.34 µM | IC50 (HepG2): 2.88 ± 0.23 µM | IC50 (SMMC-7721): 2.49 ± 0.18 µM | IC50 [1]: 12.2 ± 1.01 µM | IC50 (MEK1 [2]): 5.62 ± 0.48 µM

CN1C(=O)C(Cc2c[nH]c3ccccc23)NC1=S (stereo not shown) [Necrostatin-1]
effect of inhibitor on cell death caused by compound 10g (in words) (HepG2 cells; in combination with 10g): no apparent effect

O=C(O)/C(S)=C/c1ccc(I)cc1 [PD150606]
relative cell viability of HepG2 cells treated with 10g plus inhibitor (HepG2 cells; 10g 10 µM in combination with PD150606 50 µM): 44.87%

COC(=O)C[C@H](NC(=O)[C@H](C)NC(=O)[C@@H](NC(=O)OCc1ccccc1)C(C)C)C(=O)CF [Z-VAD-FMK] (Cbz-Val-Ala-Asp(OMe)-CH2F)
relative cell viability of HepG2 cells treated with 10g plus inhibitor (HepG2 cells; 10g 10 µM in combination with Z-VAD-FMK): 16.53%

CC(=O)Nc1cccc(-n2c(=O)n(C3CC3)c(=O)c3c(Nc4ccc(I)cc4F)n(C)c(=O)c(C)c32)c1 [trametinib]
IC50 (MEK1/2): 0.0007 to 0.0009 µM
